From US20240279240A1, “HETEROCYCLIC DERIVATIVES AS JANUS KINASE INHIBITORS” (CHIESI FARMACEUTICI S.P.A., priority 2021, published 2024) come the findings set out here.

Assay [1] deals with T1, JAK 3 (Homo sapiens, UniProt P52333).
T1 sequence (P52333 1-1124): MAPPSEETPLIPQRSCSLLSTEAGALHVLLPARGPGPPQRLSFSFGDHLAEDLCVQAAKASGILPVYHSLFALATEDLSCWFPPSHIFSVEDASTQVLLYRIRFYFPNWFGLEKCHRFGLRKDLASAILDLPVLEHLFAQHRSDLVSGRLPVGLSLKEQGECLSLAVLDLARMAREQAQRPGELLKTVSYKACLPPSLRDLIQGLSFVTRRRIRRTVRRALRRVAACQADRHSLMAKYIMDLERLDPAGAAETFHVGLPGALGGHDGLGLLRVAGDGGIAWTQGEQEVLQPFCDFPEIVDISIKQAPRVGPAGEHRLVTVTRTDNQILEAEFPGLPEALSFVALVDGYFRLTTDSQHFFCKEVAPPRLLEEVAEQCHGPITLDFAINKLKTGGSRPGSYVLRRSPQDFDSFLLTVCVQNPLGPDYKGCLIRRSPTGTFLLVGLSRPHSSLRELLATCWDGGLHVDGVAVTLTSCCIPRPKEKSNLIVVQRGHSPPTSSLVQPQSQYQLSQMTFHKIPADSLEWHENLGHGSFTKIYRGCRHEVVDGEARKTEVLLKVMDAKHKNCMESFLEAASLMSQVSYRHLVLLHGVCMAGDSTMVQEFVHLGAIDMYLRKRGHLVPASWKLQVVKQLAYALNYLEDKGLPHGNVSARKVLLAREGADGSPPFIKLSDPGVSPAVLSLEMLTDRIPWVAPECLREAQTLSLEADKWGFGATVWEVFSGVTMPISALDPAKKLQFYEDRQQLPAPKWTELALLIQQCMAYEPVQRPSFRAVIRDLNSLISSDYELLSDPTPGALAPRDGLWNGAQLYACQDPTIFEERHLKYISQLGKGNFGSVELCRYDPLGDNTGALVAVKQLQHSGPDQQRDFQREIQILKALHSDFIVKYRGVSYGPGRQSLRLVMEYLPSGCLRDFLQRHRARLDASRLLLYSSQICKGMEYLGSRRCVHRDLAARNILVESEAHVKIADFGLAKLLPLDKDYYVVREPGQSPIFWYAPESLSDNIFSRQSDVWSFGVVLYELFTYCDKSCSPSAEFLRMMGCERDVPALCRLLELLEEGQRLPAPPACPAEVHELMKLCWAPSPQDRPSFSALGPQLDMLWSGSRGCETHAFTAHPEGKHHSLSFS
The assay can be described thus: Biochemical potency on JAK3, TR-FRET LANCE Ultra kinase assay (examples 1-99). Particulars: ATP at Km (0.2 μM), read-out: JAK3 inhibitory activity (pIC50 class) (converted). On the procedure:
(§1) The objective of this study was to assess the capability of compounds to inhibit all 4 JAK isoforms activity in a cell-free environment. Assay for JAK 1, JAK 2, JAK 3 and TYK2 were performed by Time-resolved fluorescence resonance energy transfer (TR-FRET) technology. It consists in the interaction of two labelled binding partners detected by the energy transfer from an excited donor to an acceptor dye and measurement of light emission by the acceptor dye. LANCE Ultra kinase assay was used. In presence of JAK 1, JAK 2, JAK 3 and TYK2 kinases and ATP (corresponding to Km), the ULight peptide substrate (LANCE Ulight-JAK-1 (Tyr1023) Peptide, Perkin Elmer, TRF0121) is phosphorylated. It is then captured by Eu-anti-phospho-substrate antibody (LANCE Eu-W1024 Anti-phosphotyrosine (PT66), Perkin Elmer, AD0069), which bring the Eu-chelate donor and ULight acceptor dyes into close proximity. Upon excitation at 320 nm, the Eu-chelate transfers its energy to the ULight dye, resulting in a fluorescent light emission at 665 nm.
(§2) Serial dilutions of compounds in pure DMSO are prepared from 10 mM DMSO stock solutions. Compounds were tested in 384-well plate for 11 consecutive 5-fold dilutions starting from 20 μM highest concentration (20 μM-[…]). 200 nL of compound were transferred from mother plate to test plate by using Mosquito (TTP labtech). Assay was performed in 384-well Perkin Elmer test plate in 20 μL assay volume (kinase reaction) and 40 μL total volume (stopping reagent and antibody detection reagents). In 10 μL of substrate solution (peptide+ATP) 30/50/20/10 nM of peptide and 20/0.7/0.2/12 μM of ATP were added for JAK 1, JAK 2, JAK 3 and TYK2 respectively. 10 μL of enzyme solution was added to kinase reaction at these concentrations: 0.15/0.083/0.025/0.144 ng/μL of JAK 1, JAK 2, JAK 3 and TYK2 respectively. After shaking and 1.5 h of incubation at r.t., 20 μL of Stop (10 μL EDTA) and Detection mixture (10 μL Europium-anti-phospho antibody, final: 0.5 nM) were added. Reading was performed after 1 h of incubation on a EnVision 2104 reader (Perkin Elmer).
(§3) Calculation of IC50 data, curves and QC analysis was performed by using Excel tool and GraphPadPrism software, v9. Briefly, individual concentration-effect curves are generated by plotting the logarithm of the tested concentration of tested compounds (X) vs. corresponding percent inhibition values (Y) using least squares (ordinary) fit. Best fit IC50 values are calculated using Log(inhibitor) vs. normalized response—Variable slope equation, where Y=100/(1+10^((Log IC50−X)*HillSlope)). QC criteria parameters (Z′, S:B, R2, HillSlope) were checked for every IC50 curve. Calculation of IC50 data, curves and QC analysis were made using Excel tools and GraphPadPrism software. QC criteria parameters: Z′≥0.5, Hill Slope range 0.5 to 5, S:B>2.

In assay [2] the target is TYK2 (Homo sapiens, UniProt P29597). The assay can be described thus: Biochemical potency on Tyk2, TR-FRET LANCE Ultra kinase assay (examples 1-99). Particulars: ATP at Km (12 μM), read-out: Tyk2 inhibitory activity (pIC50 class) (converted). How it is done: as §1, §2, §3
Assay [3] addresses JAK 1 (Homo sapiens, UniProt P23458). The assay can be described thus: Biochemical potency on JAK1, TR-FRET LANCE Ultra kinase assay (examples 1-99). Particulars: ATP at Km (20 μM), read-out: JAK1 inhibitory activity (pIC50 class) (converted). On the procedure: as §1, §2, §3
The target in assay [4] is JAK 2 (Homo sapiens, UniProt O60674). As to the kind of experiment: Biochemical potency on JAK2, TR-FRET LANCE Ultra kinase assay (examples 1-99). As to conditions: ATP at Km (0.7 μM), read-out: JAK2 inhibitory activity (pIC50 class) (converted). How it is done: as §1, §2, §3
Background: In TR-FRET formats the signal depends on donor and acceptor labels being close together.

TYK2, sequence (P29597 whole entry): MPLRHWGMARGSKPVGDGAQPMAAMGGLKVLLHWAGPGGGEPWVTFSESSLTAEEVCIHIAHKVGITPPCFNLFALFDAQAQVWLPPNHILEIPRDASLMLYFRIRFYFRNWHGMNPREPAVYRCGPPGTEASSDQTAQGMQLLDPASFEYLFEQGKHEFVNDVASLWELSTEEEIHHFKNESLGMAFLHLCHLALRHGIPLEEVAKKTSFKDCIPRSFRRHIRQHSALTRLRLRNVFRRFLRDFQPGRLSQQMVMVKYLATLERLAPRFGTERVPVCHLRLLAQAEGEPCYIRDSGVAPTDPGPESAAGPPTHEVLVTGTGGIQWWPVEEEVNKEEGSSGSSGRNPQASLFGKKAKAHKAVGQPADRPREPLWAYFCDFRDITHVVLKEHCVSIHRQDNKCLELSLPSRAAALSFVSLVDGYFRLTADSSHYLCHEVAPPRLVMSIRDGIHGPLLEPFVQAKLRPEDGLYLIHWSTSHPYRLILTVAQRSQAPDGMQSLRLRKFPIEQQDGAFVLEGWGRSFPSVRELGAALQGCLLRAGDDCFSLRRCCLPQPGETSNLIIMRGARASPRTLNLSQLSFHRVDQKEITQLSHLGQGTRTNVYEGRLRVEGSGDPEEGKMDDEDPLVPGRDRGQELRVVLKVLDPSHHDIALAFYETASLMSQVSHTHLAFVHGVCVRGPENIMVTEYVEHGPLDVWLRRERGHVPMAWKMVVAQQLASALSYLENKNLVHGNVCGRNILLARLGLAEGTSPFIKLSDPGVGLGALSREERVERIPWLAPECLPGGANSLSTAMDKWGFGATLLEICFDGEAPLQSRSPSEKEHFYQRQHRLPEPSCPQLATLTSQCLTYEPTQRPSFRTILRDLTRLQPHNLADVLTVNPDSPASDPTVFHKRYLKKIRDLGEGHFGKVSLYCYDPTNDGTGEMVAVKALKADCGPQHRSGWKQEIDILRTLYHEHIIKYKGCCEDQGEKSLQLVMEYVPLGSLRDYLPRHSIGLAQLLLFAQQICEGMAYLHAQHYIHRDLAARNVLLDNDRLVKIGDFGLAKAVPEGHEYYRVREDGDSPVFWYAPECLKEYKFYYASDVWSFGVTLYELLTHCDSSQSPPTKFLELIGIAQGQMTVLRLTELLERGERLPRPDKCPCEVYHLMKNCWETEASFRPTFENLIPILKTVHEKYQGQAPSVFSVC
JAK 1, sequence (P23458 whole entry): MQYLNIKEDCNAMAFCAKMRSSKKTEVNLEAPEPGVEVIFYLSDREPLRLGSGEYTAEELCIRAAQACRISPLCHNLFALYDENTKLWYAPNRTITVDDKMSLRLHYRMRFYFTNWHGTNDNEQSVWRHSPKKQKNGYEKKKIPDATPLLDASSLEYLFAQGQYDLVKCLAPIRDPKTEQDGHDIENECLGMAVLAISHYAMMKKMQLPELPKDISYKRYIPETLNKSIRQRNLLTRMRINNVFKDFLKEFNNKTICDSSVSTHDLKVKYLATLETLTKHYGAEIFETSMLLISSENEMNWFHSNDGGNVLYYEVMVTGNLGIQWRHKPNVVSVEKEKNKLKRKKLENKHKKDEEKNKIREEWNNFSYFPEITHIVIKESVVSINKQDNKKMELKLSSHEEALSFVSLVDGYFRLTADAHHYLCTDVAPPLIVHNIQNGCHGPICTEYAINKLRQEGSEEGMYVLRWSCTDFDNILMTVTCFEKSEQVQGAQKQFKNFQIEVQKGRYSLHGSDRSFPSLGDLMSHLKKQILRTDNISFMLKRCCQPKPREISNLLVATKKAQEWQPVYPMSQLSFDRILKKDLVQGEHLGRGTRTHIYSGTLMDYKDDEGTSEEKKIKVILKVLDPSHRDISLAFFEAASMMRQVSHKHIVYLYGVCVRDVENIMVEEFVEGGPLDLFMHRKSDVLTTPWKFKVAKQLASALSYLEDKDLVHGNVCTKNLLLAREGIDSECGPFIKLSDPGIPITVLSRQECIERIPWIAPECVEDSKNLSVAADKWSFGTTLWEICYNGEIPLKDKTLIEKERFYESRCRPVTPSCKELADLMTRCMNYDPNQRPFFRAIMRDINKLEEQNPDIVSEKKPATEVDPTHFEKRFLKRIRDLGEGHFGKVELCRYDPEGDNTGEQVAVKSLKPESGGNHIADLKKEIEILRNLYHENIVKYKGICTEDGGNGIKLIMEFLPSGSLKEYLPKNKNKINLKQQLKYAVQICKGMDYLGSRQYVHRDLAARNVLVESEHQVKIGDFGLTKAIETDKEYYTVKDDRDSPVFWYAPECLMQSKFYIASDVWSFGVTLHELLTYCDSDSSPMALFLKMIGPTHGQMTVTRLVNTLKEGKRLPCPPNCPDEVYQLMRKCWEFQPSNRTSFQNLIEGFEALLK
JAK 2, sequence (O60674 whole entry): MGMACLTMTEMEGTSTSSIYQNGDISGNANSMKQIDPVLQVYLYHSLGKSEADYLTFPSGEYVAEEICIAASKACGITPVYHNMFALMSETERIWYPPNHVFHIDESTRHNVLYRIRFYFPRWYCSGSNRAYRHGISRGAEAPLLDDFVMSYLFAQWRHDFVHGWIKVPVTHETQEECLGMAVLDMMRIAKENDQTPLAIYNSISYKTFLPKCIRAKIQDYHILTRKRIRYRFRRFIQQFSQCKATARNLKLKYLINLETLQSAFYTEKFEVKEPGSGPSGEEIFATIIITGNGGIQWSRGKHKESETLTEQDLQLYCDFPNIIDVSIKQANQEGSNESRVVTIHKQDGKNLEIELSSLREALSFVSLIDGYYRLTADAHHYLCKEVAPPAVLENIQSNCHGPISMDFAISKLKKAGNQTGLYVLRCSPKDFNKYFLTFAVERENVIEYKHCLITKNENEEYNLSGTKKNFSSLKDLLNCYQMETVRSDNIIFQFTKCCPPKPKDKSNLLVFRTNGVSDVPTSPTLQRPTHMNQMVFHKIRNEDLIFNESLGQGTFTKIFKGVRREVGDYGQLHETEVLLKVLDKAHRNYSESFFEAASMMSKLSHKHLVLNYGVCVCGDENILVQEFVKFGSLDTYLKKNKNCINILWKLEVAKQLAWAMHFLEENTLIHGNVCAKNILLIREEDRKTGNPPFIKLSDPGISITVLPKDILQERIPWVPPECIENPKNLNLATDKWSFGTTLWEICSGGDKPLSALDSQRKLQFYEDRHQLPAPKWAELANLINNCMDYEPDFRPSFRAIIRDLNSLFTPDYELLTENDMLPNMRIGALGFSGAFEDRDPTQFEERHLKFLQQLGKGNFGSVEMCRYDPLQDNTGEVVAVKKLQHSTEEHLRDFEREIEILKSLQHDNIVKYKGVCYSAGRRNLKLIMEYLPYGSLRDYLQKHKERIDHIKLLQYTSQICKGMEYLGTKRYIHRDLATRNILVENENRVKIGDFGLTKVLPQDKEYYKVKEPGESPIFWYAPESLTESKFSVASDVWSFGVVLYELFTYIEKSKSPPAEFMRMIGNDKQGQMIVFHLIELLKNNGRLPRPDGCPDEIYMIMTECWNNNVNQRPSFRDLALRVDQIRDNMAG

Turning to `COc1ccc(S(=O)(=O)NCCO)cc1-n1nc(C)c2cnc(-c3cnn4cccnc34)cc21` [Example 15, N-(2-hydroxyethyl)-4-methoxy-3-(3-methyl-6-(pyrazolo[1,5-a]pyrimidin-3-yl)-1H-pyrazolo[4,3-c]pyridin-1-yl)benzenesulfonamide], the IC50 in assay [1] was 5.01 to 50.1 nM; in assay [2], above 50.1 nM; in assay [3], 5.01 to 50.1 nM; in assay [4], at most 5.01 nM.
In the case of `COc1ccc(S(=O)(=O)NCCCN2CCN(C)CC2)cc1-n1nc(C)c2cnc(-c3cnn4cccnc34)cc21` [Example 16, 4-methoxy-3-(3-methyl-6-(pyrazolo[1,5-a]pyrimidin-3-yl)-1H-pyrazolo[4,3-c]pyridin-1-yl)-N-(3-(4-methylpiperazin-1-yl)propyl)benzenesulfonamide], the IC50 in assay [1] was above 50.1 nM; in assay [2] it was above 50.1 nM; in assay [3] it was above 50.1 nM; in assay [4], 5.01 to 50.1 nM.
With `COc1ccc(S(=O)(=O)NCC2CN(C)C2)cc1-n1nc(C)c2cnc(-c3cnn4cccnc34)cc21` [Example 17, 4-methoxy-3-(3-methyl-6-(pyrazolo[1,5-a]pyrimidin-3-yl)-1H-pyrazolo[4,3-c]pyridin-1-yl)-N-((1-methylazetidin-3-yl)methyl)benzenesulfonamide], the IC50 is above 50.1 nM in assay [1], above 50.1 nM in assay [2], 5.01 to 50.1 nM in assay [3] and 5.01 to 50.1 nM in assay [4].
With `COc1ccc(S(=O)(=O)NCCN2CCN(C)CC2)cc1-n1nc(C)c2cnc(-c3cnn4cccnc34)cc21` [Example 18, 4-methoxy-3-(3-methyl-6-(pyrazolo[1,5-a]pyrimidin-3-yl)-1H-pyrazolo[4,3-c]pyridin-1-yl)-N-(2-(4-methylpiperazin-1-yl)ethyl)benzenesulfonamide], the IC50 in assay [1] was above 50.1 nM; in assay [2], above 50.1 nM; in assay [3] it was 5.01 to 50.1 nM; in assay [4] it was 5.01 to 50.1 nM.
In the case of `COc1ccc(S(=O)(=O)NCCN2CCOCC2)cc1-n1nc(C)c2cnc(-c3cnn4cccnc34)cc21` [Example 19, 4-methoxy-3-(3-methyl-6-(pyrazolo[1,5-a]pyrimidin-3-yl)-1H-pyrazolo[4,3-c]pyridin-1-yl)-N-(2-morpholinoethyl)benzenesulfonamide], the IC50 in assay [1] is above 50.1 nM; in assay [2] it was above 50.1 nM; in assay [3], 5.01 to 50.1 nM; in assay [4] it was 5.01 to 50.1 nM.
Take `COCCS(=O)(=O)c1ccc(OC(F)F)c(-n2nc(C)c3cnc(-c4cnn5cccnc45)cc32)c1` [Example 20, 1-(2-(difluoromethoxy)-5-((2-methoxyethyl)sulfonyl)phenyl)-3-methyl-6-(pyrazolo[1,5-a]pyrimidin-3-yl)-1H-pyrazolo[4,3-c]pyridine]: the IC50 in assay [1] was at most 5.01 nM; in assay [2], 5.01 to 50.1 nM; in assay [3], 5.01 to 50.1 nM; in assay [4], at most 5.01 nM.
On to `Cc1nn(-c2cc(S(=O)(=O)CCCN(C)C)ccc2OC(F)F)c2cc(-c3cnn4cccnc34)ncc12` [Example 21, 3-((4-(difluoromethoxy)-3-(3-methyl-6-(pyrazolo[1,5-a]pyrimidin-3-yl)-1H-pyrazolo[4,3-c]pyridin-1-yl)phenyl)sulfonyl)-N,N-dimethylpropan-1-amine], for which the IC50 in assay [1] was 5.01 to 50.1 nM; in assay [2], above 50.1 nM; in assay [3], 5.01 to 50.1 nM; in assay [4] it was 5.01 to 50.1 nM.
Consider `Cc1nn(-c2cc(S(=O)(=O)CCO)ccc2OC(F)F)c2cc(-c3cnn4cccnc34)ncc12` [Example 22, 2-((4-(difluoromethoxy)-3-(3-methyl-6-(pyrazolo[1,5-a]pyrimidin-3-yl)-1H-pyrazolo[4,3-c]pyridin-1-yl)phenyl)sulfonyl)ethan-1-ol], for which the IC50 is at most 5.01 nM in assay [1], 5.01 to 50.1 nM in assay [2], 5.01 to 50.1 nM in assay [3] and at most 5.01 nM in assay [4].
`Cc1nn(-c2cc(S(=O)(=O)CCN3CCCCC3)ccc2OC(F)F)c2cc(-c3cnn4cccnc34)ncc12` [Example 23, 1-(2-(difluoromethoxy)-5-((2-(piperidin-1-yl)ethyl)sulfonyl)phenyl)-3-methyl-6-(pyrazolo[1,5-a]pyrimidin-3-yl)-1H-pyrazolo[4,3-c]pyridine]: the IC50 in assay [1] is 5.01 to 50.1 nM; in assay [2] it was above 50.1 nM; in assay [3] it was 5.01 to 50.1 nM; in assay [4], 5.01 to 50.1 nM.
As to `CC(=O)N1CCC(S(=O)(=O)c2ccc(OC(F)F)c(-n3nc(C)c4cnc(-c5cnn6cccnc56)cc43)c2)C1` (stereo not shown) [Example 24, 1-(3-((4-(difluoromethoxy)-3-(3-methyl-6-(pyrazolo[1,5-a]pyrimidin-3-yl)-1H-pyrazolo[4,3-c]pyridin-1-yl)phenyl)sulfonyl)pyrrolidin-1-yl)ethan-1-one], the IC50 in assay [1] was at most 5.01 nM; in assay [2], above 50.1 nM; in assay [3], 5.01 to 50.1 nM; in assay [4] it was at most 5.01 nM.
In the case of `COc1cccc(S(=O)(=O)c2ccc(OC(F)F)c(-n3nc(C)c4cnc(-c5cnn6cccnc56)cc43)c2)c1` [Example 25, 1-(2-(difluoromethoxy)-5-((3-methoxyphenyl)sulfonyl)phenyl)-3-methyl-6-(pyrazolo[1,5-a]pyrimidin-3-yl)-1H-pyrazolo[4,3-c]pyridine], the IC50 is at most 5.01 nM in assay [1], 5.01 to 50.1 nM in assay [2], 5.01 to 50.1 nM in assay [3] and at most 5.01 nM in assay [4].
Consider `Cc1nn(-c2cc(S(C)(=O)=O)ccc2OC(F)F)c2cc(-c3cnn4cccnc34)ncc12` [Example 26, 1-(2-(difluoromethoxy)-5-(methylsulfonyl)phenyl)-3-methyl-6-(pyrazolo[1,5-a]pyrimidin-3-yl)-1H-pyrazolo[4,3-c]pyridine], for which the IC50 is at most 5.01 nM in assay [1], 5.01 to 50.1 nM in assay [2], at most 5.01 nM in assay [3] and at most 5.01 nM in assay [4].
For the molecule `COc1cc(O)ccc1-n1nc(C)c2cnc(-c3cnn4cccnc34)cc21` [Example 27, 3-methoxy-4-(3-methyl-6-(pyrazolo[1,5-a]pyrimidin-3-yl)-1H-pyrazolo[4,3-c]pyridin-1-yl)phenol], the IC50 was 5.01 to 50.1 nM in assay [1], above 50.1 nM in assay [2], 5.01 to 50.1 nM in assay [3] and at most 5.01 nM in assay [4].
